Data on nine compounds can be found in ChEMBL document CHEMBL1128977, “Antioxidant properties of nitrocaffeic acids” (Bioorg Med Chem Lett, 1996).

A short description of series [1]: Compound was evaluated for hydroxyl radical (OH) scavenging activity.
Series [2] is described as follows: Superoxide anion (O2-) scavenging activity.
The target of series [3] is Xanthine dehydrogenase/oxidase (Homo sapiens, UniProt P47989). Briefly: Compound was evaluated for inhibition of xanthine oxidase. Details: concentration or dose not given beside the values.

By IC50 is commonly meant the concentration needed to halve the response being measured. By Inhibition is commonly meant the drop in the measured response relative to a control, in per cent.

Chain of Xanthine dehydrogenase/oxidase (P47989 whole entry): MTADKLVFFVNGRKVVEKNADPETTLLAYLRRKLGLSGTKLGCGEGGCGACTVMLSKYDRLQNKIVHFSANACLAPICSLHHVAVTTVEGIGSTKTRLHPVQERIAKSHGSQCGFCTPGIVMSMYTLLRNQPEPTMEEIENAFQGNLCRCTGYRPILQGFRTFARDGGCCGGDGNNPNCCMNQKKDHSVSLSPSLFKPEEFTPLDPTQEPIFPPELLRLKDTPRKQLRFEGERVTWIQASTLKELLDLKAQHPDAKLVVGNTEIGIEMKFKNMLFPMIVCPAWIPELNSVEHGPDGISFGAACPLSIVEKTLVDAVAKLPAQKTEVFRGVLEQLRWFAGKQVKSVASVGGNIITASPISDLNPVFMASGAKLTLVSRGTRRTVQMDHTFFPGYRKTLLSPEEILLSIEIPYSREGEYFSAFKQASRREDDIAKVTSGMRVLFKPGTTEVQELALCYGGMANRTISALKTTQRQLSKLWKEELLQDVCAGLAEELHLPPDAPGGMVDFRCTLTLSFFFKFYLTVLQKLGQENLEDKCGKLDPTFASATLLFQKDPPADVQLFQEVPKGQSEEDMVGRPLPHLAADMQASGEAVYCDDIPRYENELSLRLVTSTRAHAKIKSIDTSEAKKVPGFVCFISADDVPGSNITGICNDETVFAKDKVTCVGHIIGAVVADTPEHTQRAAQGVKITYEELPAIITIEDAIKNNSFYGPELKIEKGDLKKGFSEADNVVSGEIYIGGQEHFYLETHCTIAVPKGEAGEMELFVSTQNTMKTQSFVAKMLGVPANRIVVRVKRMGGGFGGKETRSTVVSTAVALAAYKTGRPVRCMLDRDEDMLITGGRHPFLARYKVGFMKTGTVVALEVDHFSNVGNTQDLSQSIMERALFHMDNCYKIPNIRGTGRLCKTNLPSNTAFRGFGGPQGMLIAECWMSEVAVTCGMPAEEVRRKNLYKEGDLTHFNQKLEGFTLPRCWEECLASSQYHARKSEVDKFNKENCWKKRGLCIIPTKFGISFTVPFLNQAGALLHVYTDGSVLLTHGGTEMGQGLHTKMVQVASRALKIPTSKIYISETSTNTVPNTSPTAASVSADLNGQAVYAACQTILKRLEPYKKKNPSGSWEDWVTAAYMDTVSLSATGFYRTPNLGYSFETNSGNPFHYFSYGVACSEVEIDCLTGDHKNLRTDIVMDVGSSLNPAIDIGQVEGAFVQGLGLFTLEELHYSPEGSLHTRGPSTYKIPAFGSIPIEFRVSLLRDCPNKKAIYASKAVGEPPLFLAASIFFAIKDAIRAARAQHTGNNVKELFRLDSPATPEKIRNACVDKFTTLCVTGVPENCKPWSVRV

As to `O=[N+]([O-])c1ccc(O)c(O)c1` [4-Nitrocatechol], the IC50 in series [1] was 130 µM; in series [2], 250 µM. The same compound registered an Inhibition in series [3] of 9%.

As to `O=C(O)/C=C/c1cc(O)c(O)c([N+](=O)[O-])c1`, the IC50 is 400 µM in series [1] and 185 µM in series [2]. Further, the Inhibition in series [3] is 70%.

The compound `O=C(O)/C=C/c1ccc(O)c(O)c1` [CAFFEIC ACID] gave an IC50 in series [2] of 95 µM. Also, the Inhibition in series [3] is listed as 18%.

With `O=C(O)/C=C/c1cc(O)c(O)cc1[N+](=O)[O-]`, the IC50 was 250 µM in series [1] and 150 µM in series [2]. In series [3], this compound had an Inhibition of 36%.

Regarding `CC(=O)C(Cc1cc(O)c(O)c([N+](=O)[O-])c1)C(C)=O`, the IC50 worked out at 300 µM in series [1] and 500 µM in series [2].

On to `O=[N+]([O-])c1cc(O)ccc1O`, for which the values for the IC50 in series [1] and in series [2] were 85 µM and 1000 µM, respectively. Further, in series [3], the Inhibition amounted to 12%.

On to `Oc1ccccc1O` [CATECHOL], for which, in series [2], the 50% inhibitory concentration (IC50) is 30 µM. Further, the Inhibition in series [3] was 5%.

For the compound `O=[N+]([O-])c1cccc(O)c1O`, the IC50 in series [1] stood at 180 µM; in series [2], 250 µM. Besides, the Inhibition in series [3] amounted to 5%.

In the case of `O=C(O)/C=C/c1ccc(O)c(O)c1[N+](=O)[O-]`, the IC50 in series [1] worked out at 425 µM; in series [2], 35 µM. Moreover, the Inhibition in series [3] turned out to be 61%.
